Data: patent US20090192158A1, “Methods for Treating or Preventing Neoplasias” (priority 2006, published 2009)

Columns and labels:
[1] = tested on: human colon tumor cell line; details: cited from earlier work
[2] = target: T1, human mPGES-1 (Homo sapiens, UniProt O14684); experiment: Microsomal prostaglandin E synthase assay; format: biochemical; details: microsomes of CHO-K1 cells transfected with human mPGES-1; PGE2 by EIA; average of at least n=3; read-out: h-CHO (nM); potency expressed as IC50
T1 construct: made in house; host or cells: CHO-K1 cells, transient transfection; microsomal fraction
T1 sequence (O14684 1-152): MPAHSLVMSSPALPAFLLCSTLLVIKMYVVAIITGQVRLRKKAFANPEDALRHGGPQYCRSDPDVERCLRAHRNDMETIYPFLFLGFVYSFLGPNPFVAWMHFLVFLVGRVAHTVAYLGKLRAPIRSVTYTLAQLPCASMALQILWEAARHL
Description: Compounds are tested as inhibitors of prostaglandin E synthase activity in microsomal prostaglandin E synthases, whole cell and in vivo assays. These assays measure prostaglandin E2 (PGE2) synthesis using either Enzymatic Immunoassay (EIA) or mass spectrometry. Cells used for microsomal preparation are CHO-K1 cells transiently transfected with plasmids encoding the human mPGES-1 cDNA. Cells used for cell-based experiments are human A549 (which express human mPGES-1). Guinea pigs are used to test the activity of selected compounds in vivo. In all these assays, 100% activity is defined as the PGE2 production in vehicle-treated samples.
Prostaglandin E synthase microsomal fractions are prepared from CHO-K1 cells transiently transfected with plasmid encoding the human mPGES-1 cDNA. […] The enzyme reactions are performed in 200 mM KPi pH 7.0, 2 mM EDTA and 2.5 mM GSH-reduced form. […] The reaction is terminated by the addition of SnCl2 in 1N HCl (1 mg/ml final).

| Compound | PGE2 formation [1] | cell proliferation [1] | IC50 [2] [nM] |
| --- | --- | --- | --- |
| CC(C)c1ccc2c(c1)c(SC(C)(C)C)c(CC(C)(C)C(=O)O)n2Cc1ccc(Cl)cc1 [MK-886] | inhibits | inhibits |  |
| CC(C)(O)C#Cc1ccc2c(c1)c1cc(Cl)ccc1c1[nH]c(-c3c(F)cccc3C#N)nc21 [Example 14, 2-[9-chloro-6-(3-hydroxy-3-methylbutyl-1-yn-1-yl)-1H-phenanthro[9,10-d]imidazol-2-yl]-3-fluorobenzonitrile] |  |  | 1.8 |
| CC(C)(O)c1ccc2c(c1)c1cc(C#CC3CC3)ccc1c1nc(-c3c(C#N)cccc3C#N)[nH]c21 [Example 88, 2-[6-(cyclopropylethynyl)-9-(1-hydroxy-1-methylethyl)-1H-phenanthro[9,10-d]imidazol-2-yl]isophthalonitrile] |  |  | 1.3 |
| N#Cc1cccc(C#N)c1-c1nc2c3ccc(Br)cc3c3cc(Cl)ccc3c2[nH]1 [Example 36, 2-(6-bromo-9-chloro-1H-phenanthro[9,10-d]imidazol-2-yl)isophthalonitrile] |  |  | 1.2 |
| CC(C)(O)c1ccc2c(c1)c1cc(Br)ccc1c1nc(-c3c(C#N)cccc3C#N)[nH]c21 [Example 87, 2-[6-bromo-9-(1-hydroxy-1-methylethyl)-1H-phenanthro[9,10-d]imidazol-2-yl]isophthalonitrile] |  |  | 1.9 |
